Here are results for five compounds from article PMC7878891 (Scientific Reports, 2021).

Test [1] concerns the target PL^proCoV2 (recombinant SARS-CoV-2 PL^pro) (Severe acute respiratory syndrome coronavirus 2, UniProt P0DTD1). Format: biochemical. The following applies: for IC50: read-out: IC50 toward PL^proCoV2.
A further test concerns the target PL^proSARS (Severe acute respiratory syndrome coronavirus, UniProt P0C6X7). The class given is biochemical, SARS-CoV-1.
The next test deals with PL^proCoV2 (Severe acute respiratory syndrome coronavirus 2, UniProt P0DTD1). Format: biochemical, SARS-CoV-2.
The test system of a further test is CoV2. The following applies: read-out: EC50 antiviral activity in cell-based assay; cited from earlier work.
In test [2] the target is PL^proSARS (recombinant SARS-CoV-1 PL^pro) (Severe acute respiratory syndrome coronavirus, UniProt P0C6X7). Description: biochemical. Format: biochemical.

Turning to `O=c1c2ccccc2[se]n1-c1ccccc1O` [1d, 2-(2-Hydroxyphenyl)-1,2-benzisoselenazol-3(2H)-one], in test [1], the “Inhibition of PL^proCoV2 at 2 μM” value is on record as “fully” and the IC50 (as a rule, the concentration needed to halve the response being measured) stood at 236 nM.
The matching figures for `COc1ccccc1-n1[se]c2ccccc2c1=O` [1e, 2-(2-Methoxyphenyl)-1,2-benzisoselenazol-3(2H)-one]: “fully” and 256 ± 35 nM.
On to `O=C(Nc1ccccc1O)c1ccccc1[Se][Se]c1ccccc1C(=O)Nc1ccccc1O` [2d, Bis[2-(2-hydroxyphenylcarbamoyl)phenyl] diselenide], for which the IC50 in test [1] came out at 339 ± 109 nM.
In the case of `COc1ccccc1NC(=O)c1ccccc1[Se][Se]c1ccccc1C(=O)Nc1ccccc1OC` [2e, Bis[2-(2-methoxyphenylcarbamoyl)phenyl] diselenide], the IC50 in test [1] was 263 ± 121 nM.
As for `O=c1c2ccccc2[se]n1-c1ccccc1` [ebselen, 2-Phenyl-1,2-benzisoselenazol-3(2H)-one], the “Reactivation of PL^proSARS after dialysis” value at PL^proSARS is listed as “reactivation was not observed”. Further, the “Reactivation of PL^proCoV2 after dialysis” value on PL^proCoV2 is reported as “reactivation was not observed”. In addition, the “Mechanism of inhibition of PL^proCoV2” value in test [1] is recorded as “irreversible”. The half-maximal effective concentration (EC50) (in general, the concentration needed to bring the measured effect to its halfway point) with CoV2 was 4670 nM. Besides, in test [2], the “Mechanism of inhibition of PL^proSARS” value is given as “irreversible”. Moreover, the 50% inhibitory concentration (IC50) was 8450 ± 960 nM in test [2] (IC50 PL^proSARS 60 min incubation) and > 200000 nM in test [2] (IC50 PL^proSARS no incubation).
